Laboratory results as given in patent EP0470323A2, “New salts of the nicotinic acid with aminobenzylic compounds and their pharmaceutical use” (BROMLEY LIMITED, priority 1990, dated 1992).

Experiments:
[1] = tested on: Thyphirium salmonella strains (TA 98, TA 100, TA 1535, and TA 1538); type: cell-based
Source text: (§1) The compound according to the Example 1 has been tested, in order to check and see its mutagenic effects.

[2] = tested on: Central artery of a rabbit's ear; test: In vitro antispastic action, adrenalin-induced spasm of the perfused isolated artery; details: spasm induced by Adrenalin, n=4, listed as Compound accord.Ex.1
Protocol: An "in vitro" method has been used, according to which the withdrawal of the central artery of a rabbit's ear with the relevant nervous connections and the equipment of an appropriate seat for secluded organs was designed (Fleckenstein A., British Journal of Pharmacology 7, 533, 1952).
On the artery they did install a three-ways tube, connected with a peristaltic pump and with a mercury manometer to record the perfusion pressure. The artery was perfused with a rebs liquid at the speed of 2,5 ml/minute. The contractions were induced by injecting into the vessel 0,1 ml adrenalin at the concentration of 1 mcg/ml. The compound according to the example 1 has been added to the bath at concentrations of 0,5 - 1 - 2 uM, five minutes before the adrenalin (four preparations per concentration). As comparison drugs, chlorhydra ted Buflomedil and Papaverin have been used. The activity of the material under investigation has been appreciated in terms of percentages referring to the concentration induced by the Adrenalin (and expressed with DE₅₀) and the relevant forbidding.

[3] = tested on: pl strain of Schiosaccharomyces Pombe; test: Frequency of mutations in yeast, with and without microsomal fraction; type: cell-based; details: tested dosages, with and without microsmial fraction
Source text: as §1

[4] = tested on: aggregation of the platelets caused by the collagene; test: Anti-aggregating ex vivo activity against collagen in the rat; details: for Latency time (sec.) / Transmittance percentage (maximum aggregation): PRP 2 hours after last treatment, collagene 4 mcg/ml
Protocol: Six groups of 15 male rats of 200 - 250 g have been used.
The blood taken from the three rats of each group has been mixed and centrifuged during 6 minutes at 1400 rpm, at room temperature. After having taken the plasma full of platelets (PRP) the thereunder floating material has been centrifuged again (4000 rpm during 10 minutes) in order to have the plasma with few platelets (PPP) separated from the balance. The PRP has been diluted with a part of PPP in order to bring the number of platelets to 350 ± 50 x 10³/mm³. The aggregation has been evaluated in accordance with the method of Minsker D.H. and coll. (J. Pharmacol.Exp.Ther. 210 37 1979) by using an ELVI 840 two-channels aggregometer and an Omniscribe recorder B.500. A quantity of 0,25 ml PRP has been used, transferred into the aggregometer for two minutes at 37°C and stirred at 1000 rpm. The light intensity was arranged in such a way, to obtain 0% transmittance with the PRP and 100% with the PPP. After 2′ incubation, by means of microsyringe the collagene was added to the PRP in a volume quantity of 5 mcl with the final concentration of 4 mcg/ml.
From the aggregation trace of the recorder the following data have been evaluated: • a) latent time of the aggregation (seconds between the introductions of collagene and the starting of the aggregation) • b) transmittance increase percentage (maximum aggregation). The same proceeding was repeated for all animals, always by mixing the blood of three rats belonging to the same group and by obtaining in this manner five aggregation curves per group.

[5] = rat, 1,00 mM/kg os for 4 days, listed as Compound according to the Example N° 1

COc1cc(OC)c(C(=O)CCCN2CCCC2)c(OC)c1 [Example 1, 4-(1 pyrrholydinyl)-1-(2,4,6 trimethoxypheniyl)-1-nicotinized butanone]
mutagenic activity [1]: did not show any mutagenic activity | % inhibi-tions of the con-tractions ([2]; concentration 0,5 μ M): 45% | % inhibi-tions of the con-tractions ([2]; concentration 1,0 μ M): 70% | % inhibi-tions of the con-tractions ([2]; concentration 2,0 μ M): 94% | EC50 ([2]; read-out: DE50 (the source's name)): 580 nM | frequency of mutations [3]: did not increase | Latency time, % variation vs controls ([4]; rat, 0,25 mM/kg os for 4 days): +15,7% | Transmittance percentage, % variation vs controls ([4]; rat, 0,25 mM/kg os for 4 days): -14,4% | Latency time (sec.) ([4]; rat, 0,25 mM/kg os for 4 days): 43,4 ± 4,2 sec. | Transmittance percentage (maximum aggregation) ([4]; rat, 0,25 mM/kg os for 4 days): 67,3 ± 4,4% | Latency time, % variation vs controls ([4]; rat, 0,50 mM/kg os for 4 days): +38,7% | Transmittance percentage, % variation vs controls ([4]; rat, 0,50 mM/kg os for 4 days): -34,3% | Latency time (sec.) ([4]; rat, 0,50 mM/kg os for 4 days): 52,0 ± 3,5 sec. | Transmittance percentage (maximum aggregation) ([4]; rat, 0,50 mM/kg os for 4 days): 51,6 ± 4,0% | Latency time (sec.) [4, 5]: 64,5 ± 5,4 sec. | Transmittance percentage (maximum aggregation) [4, 5]: 30,2 ± 3,6% | Latency time, % variation vs controls [4, 5]: +72,0% | Transmittance percentage, % variation vs controls [4, 5]: -61,6%
